Test results reported in the NIST ThermoML archive (doi:10.1021/je049762q).
Where “and” joins values, the source holds several entries; their conditions need not be identical. Identical values can stand only once.

Assay: molar heat capacity at constant pressure
Conditions: 101.33 kPa, Crystal

Clc1cc(Cl)cc(Cl)c1 [1,3,5-trichlorobenzene]
Conditions | molar heat capacity at constant pressure
6.3 K | 0.73 J/K/mol
6.76 K | 1.13 J/K/mol
7.5 K | 1.88 J/K/mol
7.61 K | 1.64 J/K/mol
8.27 K | 2.46 J/K/mol
8.49 K | 2.76 J/K/mol
9.54 K | 3.28 J/K/mol
9.57 K | 3.32 J/K/mol
10 K | 3.78 J/K/mol
10.48 K | 4.28 J/K/mol
10.78 K | 4.56 J/K/mol
11.23 K | 4.67 J/K/mol
11.76 K | 5.07 J/K/mol
12.18 K | 5.67 J/K/mol
13.16 K | 7.41 J/K/mol
14.33 K | 8.56 J/K/mol
14.68 K | 9.1 J/K/mol
15 K | 9.58 J/K/mol
16.47 K | 11.78 J/K/mol
16.54 K | 11.86 J/K/mol
18.11 K | 14.04 J/K/mol
18.46 K | 14.51 J/K/mol
19.49 K | 16.03 J/K/mol
20 K | 16.74 J/K/mol
20.47 K | 17.39 J/K/mol
20.67 K | 17.88 J/K/mol
21.77 K | 19.17 J/K/mol
22.76 K | 20.24 J/K/mol
24.03 K | 21.5 J/K/mol
25 K | 22.66 J/K/mol
25.53 K | 23.3 J/K/mol
26.89 K | 24.95 J/K/mol
26.99 K | 25.08 J/K/mol
28.15 K | 26.53 J/K/mol
29.75 K | 28.33 J/K/mol
30 K | 28.58 J/K/mol
32.12 K | 30.66 J/K/mol
34.24 K | 32.73 J/K/mol
36.16 K | 34.21 J/K/mol
37.93 K | 35.9 J/K/mol
39.58 K | 37.3 J/K/mol
40 K | 37.64 J/K/mol
41.88 K | 39.13 J/K/mol
44.77 K | 41.44 J/K/mol
47.4 K | 43.42 J/K/mol
49.84 K | 45.24 J/K/mol
50 K | 45.36 J/K/mol
52.12 K | 46.94 J/K/mol
54.28 K | 48.44 J/K/mol
56.33 K | 49.86 J/K/mol
58.29 K | 51.22 J/K/mol
60 K | 52.37 J/K/mol
60.17 K | 52.49 J/K/mol
61.98 K | 53.68 J/K/mol
63.73 K | 54.83 J/K/mol
65.43 K | 55.89 J/K/mol
67.08 K | 56.99 J/K/mol
68.68 K | 57.99 J/K/mol
70 K | 58.81 J/K/mol
70.25 K | 58.96 J/K/mol
71.78 K | 59.87 J/K/mol
73.27 K | 60.75 J/K/mol
74.74 K | 61.66 J/K/mol
76.18 K | 62.52 J/K/mol
77.59 K | 63.36 J/K/mol
78.98 K | 64.16 J/K/mol
80 K | 65.01 J/K/mol
80.55 K | 65.45 J/K/mol
81.45 K | 65.93 J/K/mol
82.22 K | 66.44 J/K/mol
83.86 K | 67.37 J/K/mol
83.98 K | 67.39 J/K/mol
85.47 K | 68.28 J/K/mol
86.45 K | 68.77 J/K/mol
87.05 K | 69.08 J/K/mol
88.6 K | 70 J/K/mol
88.86 K | 70.1 J/K/mol
90 K | 70.62 J/K/mol
90.14 K | 70.69 J/K/mol
91.23 K | 71.17 J/K/mol
91.65 K | 71.42 J/K/mol
93.14 K | 72.19 J/K/mol
93.56 K | 72.31 J/K/mol
94.61 K | 72.86 J/K/mol
94.95 K | 73 J/K/mol
95.84 K | 73.25 J/K/mol
96.07 K | 73.4 J/K/mol
97.51 K | 74.13 J/K/mol
98.08 K | 74.45 J/K/mol
98.92 K | 74.86 J/K/mol
100 K | 75.37 J/K/mol
100.29 K | 74.9 J/K/mol
101.72 K | 76.37 J/K/mol
102.39 K | 76.72 J/K/mol
102.47 K | 76.71 J/K/mol
103.09 K | 76.88 J/K/mol
104.45 K | 77.52 J/K/mol
104.61 K | 77.48 J/K/mol
105.8 K | 78.18 J/K/mol
105.97 K | 78.26 J/K/mol
106.72 K | 78.56 J/K/mol
107.13 K | 78.9 J/K/mol
107.15 K | 78.92 J/K/mol
108.46 K | 79.49 J/K/mol
108.81 K | 79.58 J/K/mol
109.46 K | 80.02 J/K/mol
109.77 K | 80.18 J/K/mol
110 K | 80.28 J/K/mol
110.87 K | 80.59 J/K/mol
111.07 K | 80.74 J/K/mol
111.47 K | 80.93 J/K/mol
112.36 K | 81.34 J/K/mol
112.87 K | 81.56 J/K/mol
113.65 K | 81.98 J/K/mol
114.92 K | 82.54 J/K/mol and 82.67 J/K/mol
115.68 K | 83.09 J/K/mol
116.19 K | 83.21 J/K/mol
116.91 K | 83.54 J/K/mol
118.88 K | 84.5 J/K/mol
119.52 K | 84.75 J/K/mol
119.79 K | 85.04 J/K/mol
120 K | 85.15 J/K/mol
120.83 K | 85.51 J/K/mol
122.75 K | 86.55 J/K/mol
124.68 K | 87.28 J/K/mol
125.93 K | 87.73 J/K/mol
126.58 K | 88.03 J/K/mol
127.78 K | 88.73 J/K/mol
128.47 K | 88.92 J/K/mol
129.07 K | 89.19 J/K/mol
130 K | 89.68 J/K/mol
130.33 K | 89.86 J/K/mol
131.66 K | 90.66 J/K/mol
132.19 K | 90.72 J/K/mol
134.03 K | 91.56 J/K/mol
135.22 K | 92.02 J/K/mol
135.48 K | 92.36 J/K/mol
135.85 K | 92.4 J/K/mol
137.66 K | 93.21 J/K/mol
138.23 K | 93.42 J/K/mol
139.24 K | 94.03 J/K/mol
140 K | 94.33 J/K/mol
141.21 K | 94.75 J/K/mol
141.25 K | 94.81 J/K/mol
142.95 K | 95.67 J/K/mol
144.16 K | 96.04 J/K/mol
146.61 K | 97.27 J/K/mol
147.08 K | 97.34 J/K/mol
149.97 K | 98.63 J/K/mol
150 K | 98.65 J/K/mol
150.22 K | 98.83 J/K/mol
152.83 K | 99.87 J/K/mol
153.79 K | 100.35 J/K/mol
155.66 K | 101.1 J/K/mol
157.32 K | 101.86 J/K/mol
158.47 K | 102.3 J/K/mol
160 K | 102.99 J/K/mol
160.81 K | 103.34 J/K/mol
161.25 K | 103.49 J/K/mol
164.01 K | 104.67 J/K/mol
164.27 K | 104.83 J/K/mol
166.74 K | 105.83 J/K/mol
167.69 K | 106.28 J/K/mol
169.46 K | 106.98 J/K/mol
170 K | 107.22 J/K/mol
